In patent EP0986381B1, “USE OF DITERPENES LIKE HYPOESTOXIDES FOR THE MANUFACTURE OF A MEDICAMENT FOR IMMUNOSUPPRESSION, ANTICANCER AND ANTIVIRAL TREATMENT” (Immune Modulation, Inc., priority 1997, dated 1998):

How the values were obtained:
[1] = tested on: NK activity; experiment: NK activity in vivo, spleen cells against YAC-1 targets, 51Cr-release; set-up: species or system Mice
[2] = tested on: human cervical epitheloid carcinoma (HeLa) cells; experiment: Colorimetric MTT cytotoxicity assay, HeLa; assay type: cell-based; conditions: 72 hours, read-out: IC50 (drug concentration capable of inducing 50% cytotoxicity)
Procedure: (§1) The following materials and methods were employed in the non-limiting Examples set out below. Tumor cells: Human cervical epitheloid carcinoma (HeLa), human renal clear cell carcinoma (CAKI-1), human malignant melanoma (RPMI-7951) and mouse malignant melanoma (B16-F1) were procured from ATCC (Rockville, MD) and maintained in vitro with MEM medium (Mediatech, Inc., Herndon, VA) supplemented with 10% heat-inactivated fetal bovine serum (American Qualex, San Clemente, CA), 10mM glutamine, 100 U/ml penicillin, and 100 µg/ml streptomycin (Sigma Chemicals, Saint Louis, MO) (complete medium). […] Cell viability was assessed by trypan blue dye exclusion test and the cell number was adjusted to required concentration. Colorimetric MTT assay: Cytotoxic effects of the hypoestoxide compounds of formulas I and II (JO-4A) were determined in vitro by a colorimetric assay (Mosmann, T., J. Immunol. Methods, 65: 55-63, 1983). […] Mixing with a multichannel pipetter dissolved the dark blue crystals and the absorbance was measured at 545-650 nm using an ELISA plate reader. […] The tumors were measured with a microcaliper, and the tumor volume was calculated by the formula: Length x width x height x 0.5236 (Jungwirth, A. et al., Proc. Natl. Acad. Sci. USA, 94:5810-5813, 1997). […]

[3] = tested on: renal carcinoma (CAKI-1) cells; experiment: Colorimetric MTT cytotoxicity assay, CAKI-1; assay type: cell-based; conditions: Homo sapiens; CAKI-1, 72 hours
Procedure: as §1

[4] = tested on: human malignant melanoma (RPMI-7951); experiment: Colorimetric MTT cytotoxicity assay, RPMI-7951; assay type: cell-based; conditions: RPMI-7951, 72 hours
Procedure: as §1

[5] = tested on: normal human peripheral blood mononuclear cells; experiment: Colorimetric MTT cytotoxicity assay, normal PBMC; assay type: cell-based; conditions: 72 hours
Procedure: as §1

[6] = Colorimetric MTT cytotoxicity assay, HMEC; assay type: cell-based; conditions: human, read-out: IC50 concentration (cytotoxicity)
[7] = tested on: mouse malignant melanoma cells (B16-F1); experiment: Colorimetric MTT cytotoxicity assay, B16-F1; assay type: cell-based; conditions: B16-F1, 72 hours, read-out: IC50 concentration (cytotoxicity)
Procedure: as §1

[8] = tested on: IL-1β, TNF-α, and IL-6; experiment: LPS-induced pro-inflammatory cytokine synthesis in PBMC, enzyme immunoassay; assay type: cell-based, human; conditions: 1 µg/mL JO-4, LPS-stimulated PBMC
Procedure: Human peripheral blood mononuclear cells (PBMC) were cultured with B-cell mitogen LPS (Gibco BRL, Grand Island, NY) 3 µg/mL) at 2 x 10^6/mL in 1.0 mL volumes in 24-well plates in the presence of either 1 µg/mL JO-4 or medium for 48 hr. In a 37°C incubator with 5% CO2. Culture supernatants were collected at the end of incubation period and were assayed by enzyme immunoassay for the presence of the cytokines: interleukin-1β,-6 and TNF-α. Results are expressed as inhibition of cytokine production.

[9] = tested on: Mouse spleen cells; experiment: LPS-induced murine lymphocyte proliferation in vitro; assay type: cell-based; conditions: all concentrations tested (1.5 µg/mL-50 µg/mL); LPS 5 µg/ml, 48 hours
Procedure: LPS is a B-cell mitogen in mice and it is also known to induce pro-inflammatory cytokines such as TNF-α, IL-6 and IL-1β in both murine and human mononuclear cells (Cunningham, A.J., ed; Understanding Immunology 1978;Academic Press, Inc., New York, USA). Murine lymphocytes were stimulated with LPS in vitro in the absence or presence of varying concentrations of JO-4 (1.5, 2.5, 5.0, 10.0, and 50.0 µg/mL).

Structure (SMILES)	NK activity in vivo ([1]; intravenous administration)	NK activity in vivo ([1]; oral administration)	IC50 [2]	IC50 [3]	IC50 [4]	cytotoxic effect [5]	CC50 at 72 h [6]	IC50 [7]	effect on pro-inflammatory cytokine synthesis [8]	inhibition of LPS-induced proliferation of murine lymphocytes [9]
C=C1C(=O)CC2CC3OC3(C)CCC3OC3(C)CC(O)C1C2(C)C (stereo not shown) [JO-4A]	inhibited	inhibited	10 to 12.5 µM	20 to 40 µM	10 to 12.5 µM	no cytotoxic effect	25 to 50 µM	6.25 to 12.5 µM	–	–
C=C1C(=O)C[C@H]2C[C@@H]3O[C@@]3(C)CC[C@@H]3O[C@@]3(C)C[C@@H](OC(C)=O)[C@H]1C2(C)C [JO-4, hypoestoxide]	–	–	–	–	–	–	–	–	inhibitory or immunosuppressant effect	more than 50%
